# In patent US4478842A, “N-Substituted-2-pyridylindoles” (Ciba-Geigy Corporation, priority 1982, dated 1984):
# Counter-ions that a name gives are not always drawn.
# Experiments:
# thromboxane synthetase = target: T1, thromboxane synthetase (Homo sapiens, UniProt P24557); experiment: in vitro inhibition of the thromboxane synthetase enzyme (TxB2/PGF2α+β ratio); type: biochemical; conditions: 30 minutes incubation
# T1 construct: crude microsomal preparation of thromboxane synthetase from lysed human platelets; from tissue; host or cells: human platelets (lysed), crude microsomal preparation
# T1 sequence (P24557 1-533): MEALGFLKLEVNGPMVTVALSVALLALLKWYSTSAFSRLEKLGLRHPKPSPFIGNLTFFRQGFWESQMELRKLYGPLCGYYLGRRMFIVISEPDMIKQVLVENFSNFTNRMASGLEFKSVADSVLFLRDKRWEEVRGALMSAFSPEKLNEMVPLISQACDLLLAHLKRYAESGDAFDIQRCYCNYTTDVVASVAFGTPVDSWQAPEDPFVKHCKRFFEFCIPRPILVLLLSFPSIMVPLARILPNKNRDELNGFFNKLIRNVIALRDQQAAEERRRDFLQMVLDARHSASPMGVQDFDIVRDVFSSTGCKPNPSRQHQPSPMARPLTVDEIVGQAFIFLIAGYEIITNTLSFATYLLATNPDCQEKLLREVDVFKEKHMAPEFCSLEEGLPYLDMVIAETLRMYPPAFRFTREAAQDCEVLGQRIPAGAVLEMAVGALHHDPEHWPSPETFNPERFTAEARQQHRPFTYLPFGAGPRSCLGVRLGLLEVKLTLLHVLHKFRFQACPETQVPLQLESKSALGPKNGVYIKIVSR
# Description: Res. Comm. 74, 1432 (1977); the testing procedure is as follows: ^14 C-Arachidonic acid is incubated with an enzyme consisting of solubilized and partially purified prostaglandin cyclo-oxygenase from sheep seminal vesicles and a crude microsomal preparation of thromboxane synthetase from lysed human platelets. The test compound (dissolved in buffer, or if necessary, in a small amount of ethanol) is added to the incubation medium. […] The radioactive zones are located; those corresponding to Thromboxane B2 (TxB2) and PGF2 α+β are transferred to liquid scintillation vials and counted. The ratio of counts for TxB2 /PGF2 α+β is calculated for each concentration of test compound and IC50 values are determined graphically as the concentration of test compound at which the ratio of TxB2 /PGF2 α+β is reduced to 50% of the control value.
# platelet aggregation = experiment: variously induced platelet aggregation
# Text: (§1) Experimentally, prolongation of bleeding time in the rat is indicative of a beneficial antithrombotic effect.
# thrombocytopenia = experiment: variously induced thrombocytopenia; conditions: in vivo
# prostacyclin (PGI2) = experiment: plasma level of prostacyclin (6-keto-PGF1α) in vivo (ionophore A23187 injected); conditions: rat, oral dose 0.10 mg/kg or higher
# Description: (§2) The inhibition of the synthesis and the reduction of plasma levels of thromboxane is determined in vivo on administration to rats in the following manner (as adapted from the procedures described by Tai et al. in Anal. Biochem. 87:343, 1978 and by Salmon in Prostaglandins 15:383, 1978):
# (§3) Rats are dosed with vehicle or test drug and injected intravenously with ionophore A23187 (0.5 mg/kg) two hours later. Blood is collected for analysis 2 minutes after the ionophore injection. A single aliquot of each plasma sample is assayed for thromboxane B2 and another aliquot for 6-keto-PGF1 α, the stable metabolites of thromboxane A2 and prostacyclin (PGI2) respectively, by radioimmunoassay.
# bleeding time = experiment: prolongation of bleeding time in the rat; type: in vivo; conditions: orally to rats, about 30 mg/kg
# Text: as §1
# [1] = test system: arachidonic acid induced pulmonary obstruction; experiment: protection against sudden death due to arachidonic acid induced pulmonary obstruction; type: in vivo; conditions: orally to mice, 100 mg/kg
# thromboxane B2 = experiment: reduction of plasma levels of thromboxane B2 in vivo (ionophore A23187 injected); conditions: rat, oral dose as low as 0.10 mg/kg
# Description: as §2, §3
smiles,measurement,setting,value
"Cc1c(-c2cccnc2)n(CCSc2ccc(C(=O)O)cc2)c2ccccc12 [Example 22, 1-[2-(4-carboxyphenylthio)ethyl]-2-(3-pyridyl)-3-methylindole hydrochloride]",IC50,thromboxane synthetase,58 nM
"Cc1c(-c2cccnc2)n(CCCCCCCC(=O)O)c2ccccc12 [Example 1, 1-(7-carboxyheptyl)-3-methyl-2-(3-pyridyl)indole]",inhibition of variously induced platelet aggregation,platelet aggregation,inhibits variously induced platelet aggregation
same,inhibition of variously induced thrombocytopenia,thrombocytopenia,inhibits variously induced platelet aggregation and thrombocytopenia
same,plasma level of prostacyclin,prostacyclin (PGI2),surprising increase
same,prolongation of bleeding time,bleeding time,prolongs bleeding time
same,protection against sudden death,[1],protects against sudden death
"Cc1c(-c2cccnc2)n(CCCCCC(=O)O)c2ccc(Cl)cc12 [Example 7, 1-(5-carboxypentyl)-5-chloro-3-methyl-2-(3-pyridyl)indole]",decrease of the plasma concentration of thromboxane B2,thromboxane B2,over 50%
same,plasma level of prostacyclin,prostacyclin (PGI2),surprising increase
"Cc1c(-c2cccnc2)n(CCOc2ccc(C(=O)O)cc2)c2ccccc12 [Example 20, 1-[2-(4-carboxyphenoxy)ethyl]-2-(3-pyridyl)-3-methylindole]",IC50,thromboxane synthetase,26 nM
